Measured values reported in ChEMBL document CHEMBL1201862, “PubChem BioAssay data set” (2004).
Structures can show the parent of a compound that is named as a salt.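 Compound exposure: 48 hours, 5 concentrations, 96-well plates. Abbreviation: GI50, concentration required for 50% inhibition of growth.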 Activity calls are given as the source filed them. Cut-off read from the data, not from the text of the source: active = GI50 up to about 1.1 µM and inactive = higher.

Tests used:
Experiment in all cases: NCI-60 cell line screen, 48 h
[1] = test system: 786-0
[2] = test system: ACHN
[3] = test system: BT-549
[4] = test system: CAKI-1
[5] = test system: CCRF-CEM
[6] = test system: DU-145
[7] = test system: EKVX
[8] = test system: KM12
[9] = test system: M14
[10] = test system: Malme-3M
[11] = test system: NCI-H23
[12] = test system: NCI/ADR-RES
[13] = test system: OVCAR-4
[14] = test system: OVCAR-8
[15] = test system: SF-539
[16] = test system: SK-MEL-28
[17] = test system: SK-MEL-2
[18] = test system: SR
[19] = test system: UO-31
[20] = test system: HL-60

SMILES	GI50 [1]	GI50 [2]	GI50 [3]	GI50 [4]	GI50 [5]	GI50 [6]	GI50 [7]	GI50 [8]	GI50 [9]	GI50 [10]	GI50 [11]	GI50 [12]	GI50 [13]	GI50 [14]	GI50 [15]	GI50 [16]	GI50 [17]	GI50 [18]	GI50 [19]	GI50 [20]
O=C(/C=C/c1ccc(-c2ccccc2)cc1)NCc1ccc(C(=O)NCCc2c[nH]c3ccccc23)cc1	11.1 µM (inactive)	35.8 µM (inactive)	37.2 µM (inactive)	16.3 µM (inactive)	13.9 µM (inactive)	> 100 µM (inactive)	34.2 µM (inactive)	31 µM (inactive)	80.9 µM (inactive)	33.4 µM (inactive)	22.1 µM (inactive)	60 µM (inactive)	14.8 µM (inactive)	13.6 µM (inactive)	43.5 µM (inactive)	39.7 µM (inactive)	33.5 µM (inactive)	21 µM (inactive)	26.7 µM (inactive)	
CCCSc1cc(Cl)c(C)cc1S(=O)(=O)n1ccnc1OCCCN(C)C	> 100 µM (inactive)	> 100 µM (inactive)	> 100 µM (inactive)	> 100 µM (inactive)	> 100 µM (inactive)	> 100 µM (inactive)	> 100 µM (inactive)	> 100 µM (inactive)	> 100 µM (inactive)	> 100 µM (inactive)	> 100 µM (inactive)	> 100 µM (inactive)	> 100 µM (inactive)	> 100 µM (inactive)	> 100 µM (inactive)	> 100 µM (inactive)	> 100 µM (inactive)	> 100 µM (inactive)	> 100 µM (inactive)	
O=C1c2cccc([N+](=O)[O-])c2C(=O)N1Cc1ccccc1	> 100 µM (inactive)	> 100 µM (inactive)	> 100 µM (inactive)	> 100 µM (inactive)	> 100 µM (inactive)	> 100 µM (inactive)	> 100 µM (inactive)	> 100 µM (inactive)	> 100 µM (inactive)		> 100 µM (inactive)	> 100 µM (inactive)	> 100 µM (inactive)	> 100 µM (inactive)	> 100 µM (inactive)	> 100 µM (inactive)	> 100 µM (inactive)	> 100 µM (inactive)	> 100 µM (inactive)	> 100 µM (inactive)
CC1CC(=O)N2CCCNC2=C1C#N (stereo not drawn)	> 100 µM (inactive)		> 100 µM (inactive)	> 100 µM (inactive)	> 100 µM (inactive)	> 100 µM (inactive)	> 100 µM (inactive)	> 100 µM (inactive)	> 100 µM (inactive)	> 100 µM (inactive)	> 100 µM (inactive)	> 100 µM (inactive)	> 100 µM (inactive)	> 100 µM (inactive)	> 100 µM (inactive)	> 100 µM (inactive)	> 100 µM (inactive)	> 100 µM (inactive)	> 100 µM (inactive)	> 10 µM (inactive)
CP(C)(=S)P(C)(C)=S	> 100 µM (inactive)	> 100 µM (inactive)	> 100 µM (inactive)	> 100 µM (inactive)	> 100 µM (inactive)	> 100 µM (inactive)	> 100 µM (inactive)		> 100 µM (inactive)	> 100 µM (inactive)	> 100 µM (inactive)	> 100 µM (inactive)	> 100 µM (inactive)	> 100 µM (inactive)	> 100 µM (inactive)	> 100 µM (inactive)	> 100 µM (inactive)	> 100 µM (inactive)	> 100 µM (inactive)	> 100 µM (inactive)
CC(=O)C1(Cc2cccc3ccccc23)S(=O)(=O)OCCOS1(=O)=O	23.5 µM (inactive)	18.7 µM (inactive)	16.9 µM (inactive)	15.9 µM (inactive)	38.7 µM (inactive)	18.4 µM (inactive)	18.5 µM (inactive)	15.4 µM (inactive)	23.4 µM (inactive)	17.3 µM (inactive)	22.9 µM (inactive)	21.8 µM (inactive)	21.7 µM (inactive)	19.5 µM (inactive)	17.9 µM (inactive)	19.3 µM (inactive)		18.3 µM (inactive)	15.8 µM (inactive)	15.2 µM (inactive)
CSc1nc(=O)n(CCC#N)nc1SC	25.3 µM (inactive)	38.8 µM (inactive)	23.5 µM (inactive)	> 100 µM (inactive)		51.8 µM (inactive)	> 100 µM (inactive)	> 100 µM (inactive)	18.7 µM (inactive)	15.2 µM (inactive)	55.3 µM (inactive)	> 100 µM (inactive)		59.6 µM (inactive)	> 100 µM (inactive)	14 µM (inactive)	14.5 µM (inactive)	32.8 µM (inactive)	51.8 µM (inactive)	4.19 µM (inactive)
COC(=O)c1cc(/C=C/C(=O)Cc2ccccc2)cn1S(=O)(=O)c1ccccc1	> 100 µM (inactive)	> 100 µM (inactive)	> 100 µM (inactive)	> 100 µM (inactive)	> 100 µM (inactive)	> 100 µM (inactive)	> 100 µM (inactive)	> 100 µM (inactive)	> 100 µM (inactive)	> 100 µM (inactive)	> 100 µM (inactive)	> 100 µM (inactive)	> 100 µM (inactive)	> 100 µM (inactive)	> 100 µM (inactive)		> 100 µM (inactive)	> 100 µM (inactive)	> 100 µM (inactive)	> 100 µM (inactive)
CC(=O)OC[C@@]12Cc3ccc(C)c(O)c3[C@]1(C)[C@@H](OC(C)=O)[C@]1(O)[C@H]([C@@H](OC(=O)c3ccccc3)[C@@H](C)[C@H]1OC(C)=O)[C@H]2OC(C)=O	> 50 µM (inactive)	> 50 µM (inactive)	> 50 µM (inactive)	> 50 µM (inactive)	> 50 µM (inactive)	> 50 µM (inactive)	> 50 µM (inactive)	> 50 µM (inactive)	> 50 µM (inactive)		> 50 µM (inactive)	> 50 µM (inactive)	> 50 µM (inactive)	> 50 µM (inactive)	> 50 µM (inactive)		> 50 µM (inactive)	> 50 µM (inactive)	> 50 µM (inactive)	44.9 µM (inactive)
Nc1nc(Cl)cc(NC2(CO)CCC2)n1	> 100 µM (inactive)	> 100 µM (inactive)	> 100 µM (inactive)	89.5 µM (inactive)	> 100 µM (inactive)	> 100 µM (inactive)	> 100 µM (inactive)	> 100 µM (inactive)		> 100 µM (inactive)	> 100 µM (inactive)	> 100 µM (inactive)	> 100 µM (inactive)	> 100 µM (inactive)	> 100 µM (inactive)	> 100 µM (inactive)	> 100 µM (inactive)	> 100 µM (inactive)	> 100 µM (inactive)	> 100 µM (inactive)
CC1(C)C=Cc2c(cc3oc4ccc5c(c4c(=O)c3c2O)C=CC(C)(C)O5)O1	> 100 µM (inactive)	> 100 µM (inactive)	> 100 µM (inactive)	> 100 µM (inactive)	> 100 µM (inactive)	> 100 µM (inactive)	> 100 µM (inactive)	> 100 µM (inactive)	> 100 µM (inactive)	> 100 µM (inactive)	> 100 µM (inactive)	> 100 µM (inactive)	> 100 µM (inactive)	> 100 µM (inactive)	> 100 µM (inactive)	> 100 µM (inactive)	> 100 µM (inactive)	75.3 µM (inactive)	> 100 µM (inactive)	
CN(C)CCCNC(=O)c1c(O)c2ccccc2n(C)c1=O	65.3 µM (inactive)	43.8 µM (inactive)	70 µM (inactive)	41.4 µM (inactive)	43.1 µM (inactive)	> 100 µM (inactive)	> 100 µM (inactive)	> 100 µM (inactive)		72.4 µM (inactive)	> 100 µM (inactive)	41.2 µM (inactive)	78.3 µM (inactive)	49.4 µM (inactive)	78.3 µM (inactive)	74.6 µM (inactive)	64.1 µM (inactive)	41.5 µM (inactive)	9.27 µM (inactive)	36.5 µM (inactive)
O=C(NNC(=O)c1ccncc1)c1ccncc1	> 100 µM (inactive)	> 100 µM (inactive)	> 100 µM (inactive)	> 100 µM (inactive)	> 100 µM (inactive)	> 100 µM (inactive)	> 100 µM (inactive)	> 100 µM (inactive)	> 100 µM (inactive)	> 100 µM (inactive)	> 100 µM (inactive)	> 100 µM (inactive)	> 100 µM (inactive)	> 100 µM (inactive)		> 100 µM (inactive)	> 100 µM (inactive)	> 100 µM (inactive)	> 100 µM (inactive)	> 100 µM (inactive)
COc1cc(OCCN(C)C)c2[nH]c(C(=O)N3CC(CCl)c4ccc(N)cc43)cc2c1 (stereo not drawn)	0.0202 µM (active)	0.0178 µM (active)	0.351 µM (active)	0.022 µM (active)	0.0199 µM (active)	0.0142 µM (active)	0.108 µM (active)	0.0324 µM (active)	0.0632 µM (active)	0.0904 µM (active)	0.0269 µM (active)	0.0376 µM (active)	0.029 µM (active)	0.0432 µM (active)	0.0748 µM (active)	0.0628 µM (active)	0.0381 µM (active)	< 0.01 µM (active)	0.0195 µM (active)	
CNNCc1ccc(C(=O)NC(C)C)cc1 [PROCARBAZINE HYDROCHLORIDE]	254 µM (inactive)	> 500 µM (inactive)	> 500 µM (inactive)		461 µM (inactive)	> 500 µM (inactive)	> 500 µM (inactive)	> 500 µM (inactive)	> 500 µM (inactive)	> 457 µM (inactive)	> 500 µM (inactive)	> 500 µM (inactive)	> 500 µM (inactive)	> 500 µM (inactive)	> 500 µM (inactive)	> 500 µM (inactive)	> 500 µM (inactive)	> 375 µM (inactive)	> 500 µM (inactive)	> 478 µM (inactive)
